Measured values taken from PubChem BioAssay AID248 (DTP/NCI, 2004).
Several values for one entry are separate records, joined by “and”; a condition that tells them apart may be missing. Equal values may be shown once. Inconclusive results and toxic doses are left out.

Tested on: L1210 leukemia ip in BDF1 mice, survival T/C
Test: NCI In Vivo Anticancer Drug Screen. Data for tumor model L1210 Leukemia (intraperitoneal) in B6D2F1 (BDF1) mice
Conditions: endpoint: mean survival time, higher = longer survival
Outline: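 Tumor was transplanted into mice, which were then dosed with test compound or vehicle alone. Survival was recorded for each group, and the treated figure was expressed relative to the control figure.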

[1] = dose: 100.0 mg/kg/injection, schedule: Q01DX001 (ip), vehicle: Klucel (hydroxypropylcellulose) (HPC)
[2] = dose: 100.0 mg/kg/injection, schedule: Q04DX003 (ip), vehicle: Klucel (hydroxypropylcellulose) (HPC)
[3] = dose: 200.0 mg/kg/injection, schedule: Q01DX001 (ip), vehicle: Klucel (hydroxypropylcellulose) (HPC)
[4] = dose: 200.0 mg/kg/injection, schedule: Q04DX003 (ip), vehicle: Klucel (hydroxypropylcellulose) (HPC)
[5] = dose: 400.0 mg/kg/injection, schedule: Q01DX001 (ip), vehicle: Klucel (hydroxypropylcellulose) (HPC)
[6] = dose: 400.0 mg/kg/injection, schedule: Q04DX003 (ip), vehicle: Klucel (hydroxypropylcellulose) (HPC)
[7] = dose: 100.0 mg/kg/injection, schedule: Q01DX009 (ip), vehicle: saline with Tween-80
[8] = dose: 100.0 mg/kg/injection, schedule: Q01DX009 (ip), vehicle: Klucel (hydroxypropylcellulose) (HPC)
[9] = dose: 200.0 mg/kg/injection, schedule: Q01DX009 (ip), vehicle: Klucel (hydroxypropylcellulose) (HPC)
[10] = dose: 400.0 mg/kg/injection, schedule: Q01DX009 (ip), vehicle: Klucel (hydroxypropylcellulose) (HPC)
[11] = dose: 100.0 mg/kg/injection, schedule: Q01DX001 (ip), vehicle: saline
[12] = dose: 200.0 mg/kg/injection, schedule: Q01DX001 (ip), vehicle: saline
[13] = dose: 400.0 mg/kg/injection, schedule: Q01DX001 (ip), vehicle: saline
[14] = dose: 200.0 mg/kg/injection, schedule: Q01DX009 (ip), vehicle: saline with Tween-80
[15] = dose: 50.0 mg/kg/injection, schedule: Q01DX009 (ip), vehicle: Klucel (hydroxypropylcellulose) (HPC)

With Cc1ccc(C(=O)/C=C2/SS/C(=C/C(=O)c3ccc(C)cc3)S2)cc1 the T/C (dose: 50.0 mg/kg/injection, schedule: Q04DX003 (ip), vehicle: Klucel (hydroxypropylcellulose) (HPC)) was 100 % of control, the T/C [1] was 92 % of control and the T/C [2] was 97 % of control. For the same compound, the T/C [3] was 95 % of control, the T/C [4] was 106 % of control and the T/C [5] was 98 % of control. The T/C [6] was 110 % of control.

In the case of CCCCCCP(=O)(O)O, the T/C [7] is reported as 88 % of control.

With Nc1nc(-c2cccc([N+](=O)[O-])c2)nc2[nH]ncc12 the T/C (dose: 37.5 mg/kg/injection, schedule: Q01DX001 (ip), vehicle: Klucel (hydroxypropylcellulose) (HPC)) was 98 % of control, the T/C (dose: 75.0 mg/kg/injection, schedule: Q01DX001 (ip), vehicle: Klucel (hydroxypropylcellulose) (HPC)) was 98 % of control and the T/C (dose: 150.0 mg/kg/injection, schedule: Q01DX001 (ip), vehicle: Klucel (hydroxypropylcellulose) (HPC)) was 96 % of control.

For O=[N+]([O-])c1cc(Cl)ccc1S(=O)(=O)O, the T/C [2] was 101 % of control, the T/C [4] was 93 % of control and the T/C [6] was 98 % of control.

In the case of CC(=O)Nc1nnc(NC(C)=O)s1, the T/C (dose: 9.38 mg/kg/injection, schedule: Q01DX001 (ip), vehicle: other) is reported as 102 % of control and the T/C (dose: 18.75 mg/kg/injection, schedule: Q01DX001 (ip), vehicle: other) is reported as 107 % of control.

In the case of C#CC(C)(C)CC, the T/C (dose: 100.0 mg/kg/injection, schedule: Q01DX009 (ip), vehicle: saline) is reported as 111 % of control, the T/C (dose: 200.0 mg/kg/injection, schedule: Q01DX009 (ip), vehicle: saline) is reported as 97 % of control and the T/C (dose: 400.0 mg/kg/injection, schedule: Q01DX009 (ip), vehicle: saline) is reported as 122 % of control.

CCCCN(Cc1ccccc1)C(=O)Nc1ccccc1 was tested, and the T/C [8] was 97 % of control, the T/C [9] was 111 % of control and the T/C [10] was 100 % of control.

For NNc1ncccc1[N+](=O)[O-], the T/C (dose: 50.0 mg/kg/injection, schedule: Q01DX001 (ip), vehicle: saline) was 102 % of control, the T/C [11] was 108 % of control and the T/C [12] was 96 % of control.

For CC(=O)OCC(C)c1ccccc1 (stereo not given), the T/C (dose: 100.0 mg/kg/injection, schedule: Q04DX002 (ip), vehicle: saline) was 96 % of control, the T/C (dose: 200.0 mg/kg/injection, schedule: Q04DX002 (ip), vehicle: saline) was 103 % of control and the T/C (dose: 400.0 mg/kg/injection, schedule: Q04DX002 (ip), vehicle: saline) was 96 % of control.

In the case of CC(=O)Nc1ccc(C(=O)O)cc1O, the T/C (dose: 100.0 mg/kg/injection, schedule: Q04DX003 (ip), vehicle: saline) is reported as 92 % of control, the T/C (dose: 200.0 mg/kg/injection, schedule: Q04DX003 (ip), vehicle: saline) is reported as 92 % of control and the T/C (dose: 400.0 mg/kg/injection, schedule: Q04DX003 (ip), vehicle: saline) is reported as 95 % of control.

For Cc1cccc(C)c1NC(=O)c1ccc(Cl)cc1Cl, the T/C [8] was 101 % of control, the T/C [2] was 98 % of control and the T/C [9] was 104 % of control. For the same compound, the T/C [4] was 101 % of control, the T/C [10] was 101 % of control and the T/C [6] was 95 % of control.

For Cc1c(CNc2ccc(C(=O)NC(CC(=O)O)CC(=O)O)cc2)ccc2nc(N)nc(N)c12, the T/C (dose: 0.11 mg/kg/injection, schedule: Q01DX009 (ip), vehicle: saline) was 97 % of control, the T/C (dose: 0.15 mg/kg/injection, schedule: Q01DX009 (ip), vehicle: saline) was 107 % of control and the T/C (dose: 0.17 mg/kg/injection, schedule: Q01DX009 (ip), vehicle: saline) was 178 % of control. The T/C (dose: 0.27 mg/kg/injection, schedule: Q01DX009 (ip), vehicle: saline) was 161 % of control, the T/C (dose: 0.62 mg/kg/injection, schedule: Q01DX009 (ip), vehicle: saline) was 156 % of control and 187 % of control and the T/C (dose: 1.25 mg/kg/injection, schedule: Q01DX009 (ip), vehicle: saline) was 112 % of control and 121 % of control. The T/C (dose: 2.5 mg/kg/injection, schedule: Q04DX003 (ip), vehicle: saline) was 175 % of control, the T/C (dose: 4.4 mg/kg/injection, schedule: Q01DX009 (ip), vehicle: other) was 91 % of control and the T/C (dose: 10.0 mg/kg/injection, schedule: Q01DX001 (ip), vehicle: other) was 173 % of control. For the same compound, the T/C (dose: 10.0 mg/kg/injection, schedule: Q01DX001 (ip), vehicle: saline) was 168 % of control, the T/C (dose: 10.0 mg/kg/injection, schedule: Q04DX003 (ip), vehicle: saline) was 102 % of control and the T/C (dose: 20.0 mg/kg/injection, schedule: Q01DX001 (ip), vehicle: saline) was 151 % of control.

For N#CC(c1ccccc1)c1ccc(F)cc1 (stereo not given), the T/C [8] was 104 % of control, the T/C [2] was 100 % of control and the T/C [9] was 97 % of control. The T/C [4] was 96 % of control, the T/C [10] was 98 % of control and the T/C [6] was 98 % of control.

In the case of CCn1c(=O)sc2cc(Cl)ccc21, the T/C [11] is reported as 102 % of control, the T/C [12] is reported as 98 % of control and the T/C [13] is reported as 108 % of control.

O=C(O)c1cccc([N+](=O)[O-])c1C(=O)O was tested, and the T/C [7] was 95 % of control, the T/C (dose: 100.0 mg/kg/injection, schedule: Q04DX002 (ip), vehicle: Klucel (hydroxypropylcellulose) (HPC)) was 98 % of control and the T/C [14] was 95 % of control. For the same compound, the T/C (dose: 200.0 mg/kg/injection, schedule: Q04DX002 (ip), vehicle: Klucel (hydroxypropylcellulose) (HPC)) was 88 % of control and the T/C (dose: 400.0 mg/kg/injection, schedule: Q04DX002 (ip), vehicle: Klucel (hydroxypropylcellulose) (HPC)) was 88 % of control.

COC1OC(CN=[N+]=[N-])C(N=[N+]=[N-])C(OS(C)(=O)=O)C1OS(C)(=O)=O (stereo not given) was tested, and the T/C (dose: 100.0 mg/kg/injection, schedule: Q04DX003 (ip), vehicle: saline with Tween-80) was 92 % of control, the T/C (dose: 200.0 mg/kg/injection, schedule: Q04DX003 (ip), vehicle: saline with Tween-80) was 90 % of control and the T/C (dose: 400.0 mg/kg/injection, schedule: Q04DX003 (ip), vehicle: saline with Tween-80) was 94 % of control.

With NC(=O)N/N=C/c1cc(=O)[nH]c(=O)[nH]1 the T/C [11] was 88 % of control, the T/C [12] was 97 % of control and the T/C [13] was 97 % of control.

With COc1ccc(S(=O)(=O)NC(=O)NCCC=C(C)C)cc1 the T/C [15] was 100 % of control, the T/C [8] was 95 % of control and the T/C [2] was 106 % of control. The T/C [9] was 91 % of control, the T/C [4] was 97 % of control and the T/C [6] was 101 % of control.

For CC(C)(SCc1ccccc1)C(NC(=O)OCc1ccccc1)C(=O)O (stereo not given), the T/C (dose: 12.5 mg/kg/injection, schedule: Q01DX009 (ip), vehicle: DMSO) was 92 % of control, the T/C (dose: 25.0 mg/kg/injection, schedule: Q01DX009 (ip), vehicle: DMSO) was 92 % of control and the T/C (dose: 50.0 mg/kg/injection, schedule: Q01DX009 (ip), vehicle: DMSO) was 88 % of control. The T/C (dose: 100.0 mg/kg/injection, schedule: Q04DX002 (ip), vehicle: DMSO) was 95 % of control and the T/C (dose: 200.0 mg/kg/injection, schedule: Q04DX002 (ip), vehicle: DMSO) was 97 % of control.

In the case of NC(C(=O)O)c1ccccc1Cl (stereo not given), the T/C [15] is reported as 95 % of control, the T/C [1] is reported as 92 % of control and the T/C [8] is reported as 101 % of control. For the same compound, the T/C [3] was 102 % of control, the T/C [9] was 107 % of control and the T/C [5] was 91 % of control.

With CCCCCCCCCCCCCCCC(=O)OCC1OC(CO)(OC2OC(CO)C(O)C(O)C2O)C(O)C1O (stereo not given) the T/C [8] was 91 % of control, the T/C [2] was 89 % of control and the T/C [9] was 94 % of control. The T/C [4] was 91 % of control and the T/C [6] was 98 % of control.

With COc1ccc(O)c(Br)c1 the T/C (dose: 100.0 mg/kg/injection, schedule: Q01DX009 (ip), vehicle: other) was 97 % of control, the T/C (dose: 100.0 mg/kg/injection, schedule: Q04DX003 (ip), vehicle: other) was 94 % of control and the T/C (dose: 200.0 mg/kg/injection, schedule: Q01DX009 (ip), vehicle: other) was 103 % of control. For the same compound, the T/C (dose: 200.0 mg/kg/injection, schedule: Q04DX003 (ip), vehicle: other) was 96 % of control and the T/C (dose: 400.0 mg/kg/injection, schedule: Q04DX003 (ip), vehicle: other) was 92 % of control.

OCCOc1ccc(Cl)cc1 was tested, and the T/C [7] was 98 % of control, the T/C [14] was 110 % of control and the T/C (dose: 400.0 mg/kg/injection, schedule: Q01DX009 (ip), vehicle: saline with Tween-80) was 102 % of control.

With c1ccc(C(c2ccccc2)c2ccc(C(c3ccccc3)(c3ccccc3)c3ccccc3)cc2)cc1 the T/C (dose: 87.5 mg/kg/injection, schedule: Q04DX003 (ip), vehicle: Klucel (hydroxypropylcellulose) (HPC)) was 88 % of control.
